Experimental data as given in patent publication US9315531B2, “Titanocene-gold derivatives comprising thiolato ligands” (Research Foundation of the City University of New York, priority 2014, dated 2016).

Procedure: The lethal dose (LD) and maximum tolerated doses (MTD) of compound 2 were evaluated in C57/BL6 mice (see experimental for details). […] Twenty-four hours after the last dose all mice used in the MTD study were euthanized and blood plasma, liver, spleen and kidneys were collected and used for histological analysis.
Lethal and maximum tolerated doses (LD and MTD): Determination of lethal and maximum tolerated doses (LD and MTD) in mice: The preliminary toxicity testing of compound 2 was performed in C57BL/6 female mice six to eight weeks of age, maintained in accordance with institutional guidelines at the University of Hawaii Cancer Center (UHCC) governing the care of laboratory animals (IACUC number: A3423-01). To determine the lethal dose, mice were treated for five consecutive days at dosages ranging from 1.5 mg/kg/day to 6 mg/kg/day. One mouse per dose was used. Mice were weighed every forty-eight hours, and sacrificed twenty-four hours after the last dose. […] In order to determine the maximum tolerated dose (MTD) the animals were monitored by trained individuals for pain and distress as appropriate for the animal, under conditions and by procedures established by the UHCC vivarium veterinarian staff and research personnel (BTE). The maximum tolerated dose (MTD) was determined by observing the progression of the mice treated at doses below the lethal dose. Body weights, changes in behavior and signs of distress were recorded. The dose at which neither debilitating effects nor sign of distress were observed was set as the MTD. More specifically the signs for distress monitored were: 1. Decreased food and water consumption; 2. […] Abnormal posture/positioning (e.g., head-pressing, hunched back); 4. Unkempt appearance (erected, matted, or dull haircoat); 5. Self-mutilation, gnawing at limbs; 6. Excessive self-imposed isolation/hiding. […] One group of mice was treated with the solvent (negative control).

[(η-C5H5)2TiMe(μ-mba)Au(PPh3)] [Compound 2]
necropsy findings at MTD (10 mg/kg/day compound 6, 5 mg/kg/day compound 2): normal liver and slightly enlarged spleens
maximum tolerated dose (MTD) (C57/BL6 mice, no visible signs of distress over seven days): 5 mg/kg/day
lethal dose (LD) (C57/BL6 mice, once daily subcutaneous injection): 6 mg/kg/day
